One compound from patent publication US11013224B2, “Substance and composition for veterinary purpose” (priority 2016, dated 2021) can be followed below.

The test system of series [1] is hoof. Kind of series: Application of cromoglycate using limb perfusion in healthy horses. The series is classed as in vivo. The procedure:
Standard blood analysis was carried out before and after treatment. Hoof quality and growth were determined over a period of time as described above.

The test system of series [2] is hoof. In words: Application of cromoglycate using inhalation in horses. In kind it is in vivo. The procedure:
Gas mix system and the Air-ONE nebuliser were prepared and operated as per manufacturer's instructions. […] Treatment was continued until all 70 ml had been inhaled (between 20 to 30 minutes). Horses were treated at 2 day intervals for at least 1 and up to 3 weeks. […] Micro-circulation was measured during inhalation using PeriFlux System 5000. Hoof quality and growth were determined as described above.

Series [3] deals with hoof. Here is the method:
Routine equine intravenous fluid therapy was carried out twice per week for 4 weeks. Standard blood analysis was carried out on Abbott i-STAT systems, Abbott Architect ci8200 and Architect Celldyn CD3700 before and after treatment. Micro-circulation was measured during treatment using PeriFlux System 5000. Hoof quality and growth were determined as described above.

Setting [4] is: limb perfusion, 35 ml of 71 g/L per front limb.

Where two headings read alike, the source gives them in different places.

With `O=C(O)c1cc(=O)c2c(OCC(O)COc3cccc4oc(C(=O)O)cc(=O)c34)cccc2o1` [sodium cromoglycate], the “Heart rate, temperature and gut sounds” value with hoof [1] (24 h after injection) is on record as “normal”. Further, the “Hoof growth and hoof quality” value with hoof [1] (limb perfusion) was “increases hoof growth and improves hoof quality”; in the series on hoof [2] (inhalation), “increases hoof growth and improves hoof quality”; with hoof [3] (intravenous fluid) it was “increases hoof growth and improves hoof quality”. Besides, the “Ionized calcium, pre vs post treatment blood data” value in the series with hoof [1] (setting [4]) is given as “a change”. The “Potassium, pre vs post treatment blood data” value with hoof [1] (setting [4]) is given as “a reduction”. Besides, the “Tolerability of repeated inhalation” value in the series with hoof [2] (70 ml of 70 g/l per horse by nebuliser, 2 day intervals, 1 to 3 weeks) is “well tolerated”. The Calcium upon treatment entry in the series on hoof [2] (inhalation) and with hoof [3] (intravenous fluid therapy) was “effected” in each case. In addition, the “Digestion, coat and hoof quality” value in the series with hoof [2] (inhalation) and in the series on hoof [3] (intravenous fluid infusion) was “improves” throughout. Further, in the series on hoof [2] (measured during inhalation, PeriFlux System 5000), the Micro-circulation result is “activates”.
